In patent US12516053B2, “Bcl-2 inhibitors” (BEIGENE, LTD., priority 2019, dated 2026):
Read-outs that look alike come from different tables or passages of the source.

Assays:
[1] = test system: Molt-4 (Bcl-xL-dependent ALL cell line); assay: Molt-4 cell proliferation assay; type: cell-based; conditions: CellTiter-GLO, read-out: Cellular proliferation assay (IC50, nM) Molt-4
Excerpt: Molt-4 Cell Proliferation Assay:
Each compound was serially diluted with 10 1M as the maximum concentration. The anti-proliferative IC50s of these compounds were similarly determined as a percentage of viable cells upon treatment compared to the untreated control using CellTiter-GLO luminescent assay.

[2] = target: recombinant human Bcl-2-G101V protein (Homo sapiens, UniProt P10415, G101V); assay: Bcl-2-G101V TR-FRET assay; type: binding; conditions: TR-FRET, 0.1 nM Bcl-2-G101V, FITC labeled Bak peptide 5 nM; read-out: Biochemical assay (IC50, nM) Bcl-2 G101V
Excerpt: The IC50 for each compound was derived from fitting the data to the four-parameter logistic equation by Graphpad Prism software or Dotmatics.

[3] = test system: RS4;11 (BCL-2 dependent acute lymphoblastic leukemia cell line); assay: RS4;11 cell proliferation assay; type: cell-based; conditions: CellTiter-GLO, read-out: Cellular proliferation assay (IC50, nM) RS4
Protocol: RS4;11 Cell Proliferation Assay:
Each compound was serially diluted with 1 μM as the maximum concentration. To test the apoptotic effect of the compounds, the cells were seeded at 50,000 in 180 μl per well in 96-well plates and treated with 10-point dilution series of each compound for 48 hrs at 37° C. Cell viability was assessed after the treatment using CellTiter-GLO luminescent assay (Promega) according to the manufacturer's recommendations. Briefly, 30 μl of CellTiter-GLO reagent was added into 200 μl of cell culture, Mixture was agitated on an orbital shaker for 5 mins to ensure cell lysis followed by 7 mins incubation at room temperature to allow development and stabilization of luminescent signals, which corresponded to quantity of ATP and thus the quantity of metabolically active cells. Luminescent signals were measured using PHERAstar FS reader (BMG). Mean IC50 values for cell viability were determined with GraphPad Prism software.

[4] = target: Recombinant human Bcl-2 protein (Homo sapiens, UniProt P10415); assay: Bcl-2 TR-FRET assay; type: binding; conditions: TR-FRET, 0.05 nM Bcl-2, FITC labeled Bak peptide 0.5 nM; read-out: Biochemical assay (IC50, nM) Bcl-2 WT
Protocol: Compounds disclosed herein were tested for blocking of Bcl-2 protein with its ligand in an assay based on Time-Resolved Fluorescence Resonance Energy Transfer (TR-FRET) methodology. Recombinant human 0.05 nM Bcl-2 protein was pre-incubated with a serial dilution of compounds disclosed herein (top final concentration is 1 uM or 0.1 uM or 0.02 uM or 0.01 uM, 10 points) at room temperature for 0.5 hour in an assay buffer containing 20 mM potassium phosphate buffer, pH 7.5, 50 mM NaCl, 1 mM EDTA, 0.05% Tween-20, 0.01% BSA. […] The inhibition percentage of Bcl-2 interaction with its ligand in presence of increasing concentrations of compounds was calculated based on the TR-FRET signals. The IC50 for each compound was derived from fitting the data to the four-parameter logistic equation by Graphpad Prism software or Dotmatics.

[5] = target: BA/F3-BCL-2 G101V cells (Homo sapiens, UniProt P10415, G101V, cells depend on it); assay: BA/F3 cell proliferation assay, Bcl-2 G101V; type: cell-based, Murine; conditions: 24 hrs treatment, 3% FBS, CellTiter-Glo, geometric mean of 3 experiments; read-out: Cellular proliferation assay (IC50, nM) Bcl-2 G101V; BaF3 cell
Protocol: (§1) BA/F3 cell Proliferation Assay:
(§2) The cells were treated with a 10-point dilution series of compounds for 24 hrs. After the compound treatment, 30 μl of CellTiter-Glo reagent was added in each well. The effects on proliferation were determined using Cell TiterGlo reagent (Promega) according to the manufacturer's instructions. Luminescent signals were measured using PHERAstar FS plate reader (BMG Labtech). ICS50 values for cell viability were determined with GraphPad Prism software and were the geometric mean of 3 independent experiments.

[6] = target: BA/F3-BCL-2 cells (Homo sapiens, UniProt P10415); assay: BA/F3 cell proliferation assay, BCL-2 wild type; type: cell-based, Murine; conditions: 24 hrs treatment, 3% FBS, CellTiter-Glo, geometric mean of 3 experiments; read-out: Cellular proliferation assay (IC50, nM) Bcl-2 WT; BaF3 cell
Protocol: as §1, §2

[7] = Homo sapiens, RS4-11, 48 hrs treatment

Row | IC50 [1] [nM] | IC50 [2] [nM] | IC50 ([3]; 48 hrs treatment) [nM] | IC50 [4] [nM] | GI50 [5] [nM] | IC50 [6] [nM] | IC50 ([1]; Homo sapiens, MOLT-4) [nM] | IC50 [3, 7] [nM] | Molecule
1 | 4540 | 0.94 | 1.1 | 0.063 | 10.8 | 1.1 | – | – | 2-(2,3-dihydropyrrolo[3′,2′:56]pyrido[2,3-b][1,4]oxazin-1(6H)-yl)-N-((4-((((1r,4r)-4-hydroxy-4-methylcyclohexyl)methyl)amino)-3-nitrophenyl)sulfonyl)-4-(2-((S)-2-(2-isopropylphenyl)pyrrolidin-1-yl)-7-azaspiro[3,5]nonan-7-yl)benzamide [Example B3]
2 | – | 0.86 | – | 0.025 | 9.8 | 0.3 | > 10000 | 0.47 | CC(C)c1ccccc1[C@@H]1CCCN1C1CC2(CCN(c3ccc(C(=O)NS(=O)(=O)c4cc5c(c([N+](=O)[O-])c4)N[C@H](C[C@H]4CC[C@H](O)CC4)CO5)c(Oc4cnc5[nH]ccc5c4)c3)CC2)C1 [Example A4, 2-((1H-pyrrolo[2,3-b]pyridin-5-yl)oxy)-N—(((R)-3-(((1R,4R)-4-hydroxycyclohexyl)methyl)-5-nitro-3,4-dihydro-2H-benzo[b][1,4]oxazin-7-yl)sulfonyl)-4-(2-((S)-2-(2-isopropylphenyl)pyrrolidin-1-yl)7-azaspiro[3,5]nonan-7-yl)benzamide]
3 | – | 0.83 | – | 0.024 | 7.5 | 0.41 | 5160 | 1 | CC(C)c1ccccc1[C@@H]1CCCN1C1CC2(CCN(c3ccc(C(=O)NS(=O)(=O)c4cc5c(c([N+](=O)[O-])c4)N[C@H](C[C@H]4CC[C@@H](O)CC4)CO5)c(Oc4cnc5[nH]ccc5c4)c3)CC2)C1 [Example A5, 2-((1H-pyrrolo[2,3-b]pyridin-5-yl)oxy)-N—(((R)-3-(((1s,4S)-4-hydroxycyclohexyl)methyl)-5-nitro-3,4-dihydro-2H-benzo[b][1,4]oxazin-7-yl)sulfonyl)-4-(2-((S)-2-(2-isopropylphenyl)pyrrolidin-1-yl)-7-azaspiro[3,5]nonan-7-yl)benzamide]
4 | – | 2.8 | – | 0.041 | – | – | > 10000 | 3.2 | CC(C)c1ccccc1[C@@H]1CCCN1C1CC2(C1)CN(c1ccc(C(=O)NS(=O)(=O)c3ccc(NC[C@H]4CC[C@](C)(O)CC4)c([N+](=O)[O-])c3)c(N3CCOc4nc5[nH]ccc5cc43)c1)C2 [Example B11, 2-(2,3-dihydropyrrolo[3′,2′:5,6]pyrido[2,3-b][1,4]oxazin-1(6H)-yl)-N-((4-((((1R,4R)-4-hydroxy-4-methylcyclohexyl)methyl)amino)-3-nitrophenyl)sulfonyl)-4-(6-((S)-2-(2-isopropylphenyl)pyrrolidin-1-yl)-2-azaspiro[3.3]heptan-2-yl)benzamide]
5 | – | 3.7 | – | 0.058 | – | – | 7310 | 3.6 | CC(C)c1ccccc1[C@@H]1CCCN1C1CC2(C1)CN(c1ccc(C(=O)NS(=O)(=O)c3ccc(NCC4(F)CCOCC4)c([N+](=O)[O-])c3)c(N3CCOc4nc5[nH]ccc5cc43)c1)C2 [Example B12, (S)-2-(2,3-dihydropyrrolo[3′,2′:5,6]pyrido[2,3-b][1,4]oxazin-1(6H)-yl)-N-((4-(((4-fluorotetrahydro-2H-pyran-4-yl)methyl)amino)-3-nitrophenyl)sulfonyl)-4-(6-(2-(2-isopropylphenyl)pyrrolidin-1-yl)-2-azaspiro[3.3]heptan-2-yl)benzamide]
6 | – | 5.2 | – | 0.14 | – | – | > 10000 | 8 | CC(C)c1ccccc1[C@@H]1CCCN1C1CC2(C1)CN(c1ccc(C(=O)NS(=O)(=O)c3ccc(NC[C@H]4COCCO4)c([N+](=O)[O-])c3)c(N3CCCOc4nc5[nH]ccc5cc43)c1)C2 [Example B15, N-((4-((((S)-1,4-dioxan-2-yl)methyl)amino)-3-nitrophenyl)sulfonyl)-2-(3,4-dihydro-2H-pyrrolo[3′,2′:5,6]pyrido[2,3-b][1,4]oxazepin-1(7H)-yl)-4-(6-((S)-2-(2-isopropylphenyl)pyrrolidin-1-yl)-2-azaspiro[3,3]heptan-2-yl)benzamide]
